According to patent publication US9096591B2, “Tetracyclic compounds” (Medivation Technologies, Inc., priority 2007, dated 2015):

How the values were obtained:
[1] = target: T1, human recombinant serotonin (5-Hydroxytryptamine) 5-HT2C receptor (Homo sapiens, UniProt P28335); experiment: Serotonin 5-HT2C radioligand binding ([3H]Mesulergine); set-up: Inhibition of ligand binding, Ser. 5-HT2C: concentration or dose not given beside the values; conditions: for Inhibition of ligand binding, Ser. 5-HT2C: percent inhibition of specific binding; for inhibition at 1 µM: compounds screened at 1 μM, read-out: Inhibition of ligand binding, Ser. 5-HT2C (percent inhibition of specific binding)
T1 construct: expressed in transfected cells; host or cells: CHO-K1 cells
T1 sequence (P28335 33-458): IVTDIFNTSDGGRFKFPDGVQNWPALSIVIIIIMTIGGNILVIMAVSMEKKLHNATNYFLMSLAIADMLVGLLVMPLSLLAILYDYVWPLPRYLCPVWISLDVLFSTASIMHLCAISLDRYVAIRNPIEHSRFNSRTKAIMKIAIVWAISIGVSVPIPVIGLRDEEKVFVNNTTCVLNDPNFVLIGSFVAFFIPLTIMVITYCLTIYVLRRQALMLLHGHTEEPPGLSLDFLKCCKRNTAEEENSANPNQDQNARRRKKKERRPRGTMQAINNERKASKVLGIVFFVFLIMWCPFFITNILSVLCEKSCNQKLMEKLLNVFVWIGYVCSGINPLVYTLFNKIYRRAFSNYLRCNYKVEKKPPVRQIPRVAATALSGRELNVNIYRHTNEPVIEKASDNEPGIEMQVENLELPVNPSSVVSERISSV
Method: (§1) Compounds of the invention were incubated with 1 nM [^3H]Mesulergine for 60 minutes at 25° C. Non-specific binding was estimated in the presence of 1 μM Mianserin. Receptor proteins were filtered and washed, the filters were then counted to determine [^3H]Mesulergine specifically bound. […] Biochemical assay results are presented as the percent inhibition of specific binding in Table 6.

[2] = target: T2, human recombinant serotonin (5-Hydroxytryptamine) 5-HT6 receptor (Homo sapiens, UniProt P50406); experiment: Serotonin 5-HT6 radioligand binding ([3H]LSD); set-up: Inhibition of ligand binding, Ser. 5-HT6: concentration or dose not given beside the values; conditions: for Inhibition of ligand binding, Ser. 5-HT6: percent inhibition of specific binding; for inhibition at 1 µM: compounds screened at 1 μM, read-out: Inhibition of ligand binding, Ser. 5-HT6 (percent inhibition of specific binding)
T2 construct: expressed in transfected cells; host or cells: human HeLa cells
T2 sequence (P50406 whole entry): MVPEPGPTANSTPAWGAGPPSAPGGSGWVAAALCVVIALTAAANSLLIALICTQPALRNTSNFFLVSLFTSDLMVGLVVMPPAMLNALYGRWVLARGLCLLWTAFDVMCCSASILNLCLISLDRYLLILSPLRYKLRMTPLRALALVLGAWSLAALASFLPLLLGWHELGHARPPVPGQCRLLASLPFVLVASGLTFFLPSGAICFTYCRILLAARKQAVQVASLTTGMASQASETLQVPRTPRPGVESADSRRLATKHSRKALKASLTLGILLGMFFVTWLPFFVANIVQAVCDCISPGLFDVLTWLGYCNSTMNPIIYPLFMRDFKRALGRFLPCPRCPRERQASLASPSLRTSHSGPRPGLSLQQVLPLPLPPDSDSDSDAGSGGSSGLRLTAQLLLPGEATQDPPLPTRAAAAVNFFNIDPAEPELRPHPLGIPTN
Excerpt: Receptor proteins were filtered and washed, the filters were then counted to determine [3H]LSD specifically bound. […] Biochemical assay results are presented as the percent inhibition of specific binding in Table 6.

[3] = target: T3, human recombinant adrenergic α2B receptor (Homo sapiens, UniProt P18089); experiment: Adrenergic α2B radioligand binding ([3H]Rauwolscine); set-up: Inhibition of ligand binding, Adren. alpha2B: concentration or dose not given beside the values; conditions: for Inhibition of ligand binding, Adren. alpha2B: percent inhibition of specific binding; for inhibition at 1 µM: compounds screened at 1 μM, read-out: Inhibition of ligand binding, Adren. alpha2B (percent inhibition of specific binding)
T3 construct: expressed in transfected cells; host or cells: CHO-K1 cells
T3 sequence (P18089 1-450): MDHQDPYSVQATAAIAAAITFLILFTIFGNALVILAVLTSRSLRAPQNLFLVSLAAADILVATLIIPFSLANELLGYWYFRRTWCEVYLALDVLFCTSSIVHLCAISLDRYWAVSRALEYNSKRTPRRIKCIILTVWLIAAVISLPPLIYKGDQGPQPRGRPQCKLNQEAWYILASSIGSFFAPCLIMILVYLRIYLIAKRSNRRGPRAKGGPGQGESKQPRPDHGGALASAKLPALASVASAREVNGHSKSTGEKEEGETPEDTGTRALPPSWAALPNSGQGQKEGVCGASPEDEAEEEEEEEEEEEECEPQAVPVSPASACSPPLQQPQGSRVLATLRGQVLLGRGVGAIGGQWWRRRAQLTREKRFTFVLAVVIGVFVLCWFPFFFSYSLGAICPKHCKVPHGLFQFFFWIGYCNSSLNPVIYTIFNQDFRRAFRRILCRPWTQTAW
Outline: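 Incubation ran 60 minutes at 25 °C in modified Tris-HCl buffer (50 mM, pH 7.4, 12.5 mM MgCl2, 1 mM EDTA, 0.2% BSA) using CHO-K1-expressed human receptor.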

[4] = target: T4, Serotonin (5-Hydroxytryptamine) 5-HT7 (Homo sapiens, UniProt P34969); experiment: Serotonin 5-HT7 radioligand binding ([3H]LSD); set-up: Inhibition of ligand binding, Ser. 5-HT7: concentration or dose not given beside the values; conditions: for Inhibition of ligand binding, Ser. 5-HT7: percent inhibition of specific binding; for inhibition at 1 µM: compounds screened at 1 μM, read-out: Inhibition of ligand binding, Ser. 5-HT7 (percent inhibition of specific binding)
T4 construct: expressed in transfected cells; host or cells: CHO cells
T4 sequence (P34969 whole entry): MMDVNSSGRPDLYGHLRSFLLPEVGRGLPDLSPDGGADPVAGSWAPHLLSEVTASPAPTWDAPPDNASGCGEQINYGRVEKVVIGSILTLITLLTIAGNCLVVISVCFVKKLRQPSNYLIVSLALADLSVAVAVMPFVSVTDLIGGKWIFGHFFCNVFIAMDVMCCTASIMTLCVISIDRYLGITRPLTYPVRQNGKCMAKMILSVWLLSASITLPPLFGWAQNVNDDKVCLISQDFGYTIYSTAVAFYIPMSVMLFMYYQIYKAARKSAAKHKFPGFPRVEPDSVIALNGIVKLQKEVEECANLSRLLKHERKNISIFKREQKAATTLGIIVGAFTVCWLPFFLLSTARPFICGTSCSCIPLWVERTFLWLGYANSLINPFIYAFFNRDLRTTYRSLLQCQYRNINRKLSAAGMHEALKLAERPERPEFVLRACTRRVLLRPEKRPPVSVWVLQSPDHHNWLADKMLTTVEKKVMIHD
Method: Lysergic acid diethylamide (LSD) for 2 hours at 25° C. […] Receptor proteins were filtered and washed, the filters were then counted to determine [^3H]LSD specifically bound. […] Biochemical assay results are presented as the percent inhibition of specific binding in Table 6.

[5] = target: T5, human recombinant adrenergic α1D receptor (Homo sapiens, UniProt P25100); experiment: Adrenergic α1D radioligand binding ([3H]Prozosin); set-up: Inhibition of ligand binding, Adren. alpha1D: concentration or dose not given beside the values; conditions: for Inhibition of ligand binding, Adren. alpha1D: percent inhibition of specific binding; for inhibition at 1 µM: compounds screened at 1 μM, read-out: Inhibition of ligand binding, Adren. alpha1D (percent inhibition of specific binding)
T5 construct: expressed in transfected cells; host or cells: HEK-293 cells
T5 sequence (P25100 1-572): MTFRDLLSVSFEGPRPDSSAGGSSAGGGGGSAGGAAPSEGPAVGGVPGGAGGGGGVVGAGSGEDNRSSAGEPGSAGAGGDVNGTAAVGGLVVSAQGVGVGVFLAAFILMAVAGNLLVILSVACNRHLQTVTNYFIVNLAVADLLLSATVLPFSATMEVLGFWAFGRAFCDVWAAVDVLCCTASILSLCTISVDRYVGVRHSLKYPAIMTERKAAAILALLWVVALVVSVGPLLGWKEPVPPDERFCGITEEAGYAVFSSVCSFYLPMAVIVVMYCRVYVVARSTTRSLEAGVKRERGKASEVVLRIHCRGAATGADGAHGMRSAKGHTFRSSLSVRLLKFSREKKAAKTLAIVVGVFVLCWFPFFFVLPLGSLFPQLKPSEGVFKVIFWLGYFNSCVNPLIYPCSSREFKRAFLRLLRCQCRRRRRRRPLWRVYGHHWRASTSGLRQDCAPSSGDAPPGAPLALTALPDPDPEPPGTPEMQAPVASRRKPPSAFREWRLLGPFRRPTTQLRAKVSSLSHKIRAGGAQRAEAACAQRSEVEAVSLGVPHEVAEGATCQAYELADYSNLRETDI
Method: as §1, with “of” for “of the”, “with 0.6” for “with 1”, “nM [^3H]Prozosin” for “nM [^3H]Mesulergine”, “of 10” for “of 1”, “μM phentolamine.” for “μM Mianserin.”, “determine [^3H]Prozosin” for “determine [^3H]Mesulergine”

## CCN1CCc2c(c3cc(C)ccc3n2CCc2ccccn2)C1 [Compound 23, 2-ethyl-2,3,4,5-tetrahydro-8-methyl-5-(2-(pyridin-2-yl)ethyl)-1H-pyrido[4,3-b]indole]
[1]
  Inhibition of ligand binding, Ser. 5-HT2C: 53%
[2]
  Inhibition of ligand binding, Ser. 5-HT6: 47%
[3]
  Inhibition of ligand binding, Adren. alpha2B: 97%
[4]
  Inhibition of ligand binding, Ser. 5-HT7: 94%
[5]
  Inhibition of ligand binding, Adren. alpha1D: 61%

## CCN1CCc2c(c3ccccc3n2Cc2ccccc2)C1 [Compound 16, 5-benzyl-2-ethyl-2,3,4,5-tetrahydro-1H-pyrido[4,3-b]indole]
[1]
  Inhibition of ligand binding, Ser. 5-HT2C: 5%
[2]
  Inhibition of ligand binding, Ser. 5-HT6: 6%
[3]
  Inhibition of ligand binding, Adren. alpha2B: 10%
[4]
  Inhibition of ligand binding, Ser. 5-HT7: 14%
[5]
  Inhibition of ligand binding, Adren. alpha1D: 12%

## Cc1ccc2c(c1)c1c(n2CCc2ccc(Cl)cc2)CCN(C)C1 [Compound 32, 5-(4-chlorophenethyl)-2,3,4,5-tetrahydro-2,8-dimethyl-1H-pyrido[4,3-b]indole]
[1]
  Inhibition of ligand binding, Ser. 5-HT2C: 100%
[2]
  Inhibition of ligand binding, Ser. 5-HT6: 101%
[3]
  Inhibition of ligand binding, Adren. alpha2B: 110%
[4]
  Inhibition of ligand binding, Ser. 5-HT7: 101%
[5]
  Inhibition of ligand binding, Adren. alpha1D: 94%

## Cc1ccc2c(c1)c1c(n2Cc2ccc(C)nc2)CCN(C)C1 [Compound 139, 2,3,4,5-tetrahydro-2,8-dimethyl-5-((6-methylpyridin-3-yl)methyl)-1H-pyrido[4,3-b]indole]
[1]
  Inhibition of ligand binding, Ser. 5-HT2C: 0%
[2]
  Inhibition of ligand binding, Ser. 5-HT6: 39%
[3]
  Inhibition of ligand binding, Adren. alpha2B: 52%
[4]
  Inhibition of ligand binding, Ser. 5-HT7: 74%
[5]
  Inhibition of ligand binding, Adren. alpha1D: 25%

## CN1CCc2c(c3cc(Cl)ccc3n2CCc2ccccn2)C1 [Compound 30, 8-chloro-2,3,4,5-tetrahydro-2-methyl-5-(2-(pyridin-2-yl)ethyl)-1H-pyrido[4,3-b]indole]
[1]
  Inhibition of ligand binding, Ser. 5-HT2C: 90%
[2]
  Inhibition of ligand binding, Ser. 5-HT6: 90%
[3]
  Inhibition of ligand binding, Adren. alpha2B: 102%
[4]
  Inhibition of ligand binding, Ser. 5-HT7: 99%
[5]
  Inhibition of ligand binding, Adren. alpha1D: 68%

## CCN1CCc2c(c3cc(C)ccc3n2Cc2ccccc2)C1 [Compound 140, 5-benzyl-2-ethyl-2,3,4,5-tetrahydro-8-methyl-1H-pyrido[4,3-b]indole]
[1]
  Inhibition of ligand binding, Ser. 5-HT2C: −10%
[2]
  Inhibition of ligand binding, Ser. 5-HT6: 8%
[3]
  Inhibition of ligand binding, Adren. alpha2B: −4%
[4]
  Inhibition of ligand binding, Ser. 5-HT7: 2%
[5]
  Inhibition of ligand binding, Adren. alpha1D: 14%

## Cc1ccc2c(c1)c1c(n2CCc2nc(-c3ccccc3)cs2)CCN(C)C1 [Compound C1-5]
[1]
  inhibition at 1 µM: 93%
[2]
  inhibition at 1 µM: 101%
[3]
  inhibition at 1 µM: 113%
[4]
  inhibition at 1 µM: 93%
[5]
  inhibition at 1 µM: 92%

## CCN1CCc2c(c3cc(C)ccc3n2CCc2ccc(C)nc2)C1 [Compound 31, 2-ethyl-2,3,4,5-tetrahydro-8-methyl-5-(2-(6-methylpyridin-3-yl)ethyl)-1H-pyrido[4,3-b]indole]
[1]
  Inhibition of ligand binding, Ser. 5-HT2C: 39%
[2]
  Inhibition of ligand binding, Ser. 5-HT6: 64%
[3]
  Inhibition of ligand binding, Adren. alpha2B: 91%
[4]
  Inhibition of ligand binding, Ser. 5-HT7: 85%
[5]
  Inhibition of ligand binding, Adren. alpha1D: 70%

## CCN1CCc2c(c3ccccc3n2CCc2ccc(C)cc2)C1 [Compound 3, 2-ethyl-2,3,4,5-tetrahydro-5-(4-methylphenethyl)-1H-pyrido[4,3-b]indole]
[1]
  Inhibition of ligand binding, Ser. 5-HT2C: 82%
[2]
  Inhibition of ligand binding, Ser. 5-HT6: 40%
[3]
  Inhibition of ligand binding, Adren. alpha2B: 102%
[4]
  Inhibition of ligand binding, Ser. 5-HT7: 81%
[5]
  Inhibition of ligand binding, Adren. alpha1D: 48%

## CCN1CCc2c(c3cc(C)ccc3n2Cc2ccc(C)nc2)C1 [Compound 138, 2-ethyl-2,3,4,5-tetrahydro-8-methyl-5-((6-methylpyridin-3-yl)methyl)-1H-pyrido[4,3-b]indole]
[1]
  Inhibition of ligand binding, Ser. 5-HT2C: 5%
[2]
  Inhibition of ligand binding, Ser. 5-HT6: 22%
[3]
  Inhibition of ligand binding, Adren. alpha2B: 19%
[4]
  Inhibition of ligand binding, Ser. 5-HT7: 23%
[5]
  Inhibition of ligand binding, Adren. alpha1D: 33%

## CN1CCc2c(c3ccccc3n2CCc2ccccn2)C1 [Compound 329, 2,3,4,5-tetrahydro-2-methyl-5-(2-(pyridin-2-yl)ethyl)-1H-pyrido[4,3-b]indole]
[1]
  Inhibition of ligand binding, Ser. 5-HT2C: 54%
[2]
  Inhibition of ligand binding, Ser. 5-HT6: 15%
[3]
  Inhibition of ligand binding, Adren. alpha2B: 68%
[4]
  Inhibition of ligand binding, Ser. 5-HT7: 78%
[5]
  Inhibition of ligand binding, Adren. alpha1D: 4%

## CCN1CCc2c(c3ccccc3n2CCc2ccncc2)C1 [Compound 5]
[1]
  Inhibition of ligand binding, Ser. 5-HT2C: 9%
[2]
  Inhibition of ligand binding, Ser. 5-HT6: 1%
[3]
  Inhibition of ligand binding, Adren. alpha2B: 78%
[4]
  Inhibition of ligand binding, Ser. 5-HT7: 37%
[5]
  Inhibition of ligand binding, Adren. alpha1D: 21%

## Cc1ccc2c(c1)c1c(n2CCC2CCCCC2)CCN(C)C1 [Compound 163, 5-(2-cyclohexylethyl)-2,3,4,5-tetrahydro-2,8-dimethyl-1H-pyrido[4,3-b]indole]
[1]
  Inhibition of ligand binding, Ser. 5-HT2C: 99%
[2]
  Inhibition of ligand binding, Ser. 5-HT6: 99%
[3]
  Inhibition of ligand binding, Adren. alpha2B: 104%
[4]
  Inhibition of ligand binding, Ser. 5-HT7: 95%
[5]
  Inhibition of ligand binding, Adren. alpha1D: 49%

## Cc1ccc2c(c1)c1c(n2CCC(=O)N2CCC(N)CC2)CCN(C)C1 [Compound 231, 1-(4-aminopiperidin-1-yl)-3-(1,2,3,4-tetrahydro-2,8-dimethylpyrido[4,3-b]indol-5-yl)propan-1-one]
[1]
  Inhibition of ligand binding, Ser. 5-HT2C: 49%
[2]
  Inhibition of ligand binding, Ser. 5-HT6: 3%
[3]
  Inhibition of ligand binding, Adren. alpha2B: 11%
[4]
  Inhibition of ligand binding, Ser. 5-HT7: 0%
[5]
  Inhibition of ligand binding, Adren. alpha1D: 21%

## CN1CCc2c(c3cc(Cl)ccc3n2CCc2noc(-c3ccccc3)n2)C1 [Compound C4-6]
[1]
  inhibition at 1 µM: 94%
[2]
  inhibition at 1 µM: 105%
[3]
  inhibition at 1 µM: 94%
[4]
  inhibition at 1 µM: 90%
[5]
  inhibition at 1 µM: 84%
